Laboratory results taken from ChEMBL document CHEMBL5052846, “Pyridine derivatives as kif18a inhibitors” (2021).

Target: T1, Kinesin-like protein KIF18A (Homo sapiens, UniProt Q8NI77)
T1 sequence (Q8NI77 whole entry): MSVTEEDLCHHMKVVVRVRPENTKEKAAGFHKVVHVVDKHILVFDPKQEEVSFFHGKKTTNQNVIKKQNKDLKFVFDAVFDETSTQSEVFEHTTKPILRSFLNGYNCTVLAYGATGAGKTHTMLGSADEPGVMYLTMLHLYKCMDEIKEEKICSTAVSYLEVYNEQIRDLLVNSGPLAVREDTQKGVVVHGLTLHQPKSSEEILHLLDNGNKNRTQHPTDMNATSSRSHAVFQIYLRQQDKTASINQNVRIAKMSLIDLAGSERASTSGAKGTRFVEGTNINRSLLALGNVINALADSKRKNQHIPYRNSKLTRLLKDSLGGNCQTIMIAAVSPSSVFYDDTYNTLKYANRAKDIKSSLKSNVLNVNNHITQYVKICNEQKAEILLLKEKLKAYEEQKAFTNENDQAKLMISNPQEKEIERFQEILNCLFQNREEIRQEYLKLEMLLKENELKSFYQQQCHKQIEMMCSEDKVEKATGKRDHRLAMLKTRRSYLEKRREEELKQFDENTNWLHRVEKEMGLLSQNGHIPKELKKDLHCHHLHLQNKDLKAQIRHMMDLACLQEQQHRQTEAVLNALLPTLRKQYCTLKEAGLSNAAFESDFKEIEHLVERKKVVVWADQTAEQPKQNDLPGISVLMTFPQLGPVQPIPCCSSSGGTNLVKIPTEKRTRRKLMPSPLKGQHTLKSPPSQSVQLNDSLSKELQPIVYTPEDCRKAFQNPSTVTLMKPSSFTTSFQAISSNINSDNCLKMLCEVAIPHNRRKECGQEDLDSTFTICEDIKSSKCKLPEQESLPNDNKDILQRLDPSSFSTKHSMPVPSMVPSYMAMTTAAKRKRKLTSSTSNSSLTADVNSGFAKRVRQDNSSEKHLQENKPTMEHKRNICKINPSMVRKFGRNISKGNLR
Test: Inhibition of recombinant His-tagged human KIF18A (1 to 467 residues) expressed in baculovirus expression system assessed as inhibition of microtubule-stimulated ATPase activity preincubated for 15 mins followed by ATP addition and further incubated for 15 mins and measured after 40 mins by ADP-Glo reagent based assay

- IC50: 0.189 µM
SMILES: CC(C)(C)NS(=O)(=O)c1cccc(NC(=O)c2ccc(N3CC[C@@H](O)C3)nc2N2CCC3(CC2)CC3)c1
